In ChEMBL document CHEMBL1143471, “Synthesis of [1,2,4]triazolo[1,5-a]pyrazines as adenosine A2A receptor antagonists” (Bioorg Med Chem Lett, 2005) one finds Ki data, which are given here for 44 compounds.

The target of one experiment is Adenosine receptor A2a (Rattus norvegicus, UniProt P30543). The experiment can be described thus: biochemical.
In the next experiment the target is T1, Adenosine receptor A1 (Rattus norvegicus, UniProt P25099).
T1 sequence (P25099 whole entry): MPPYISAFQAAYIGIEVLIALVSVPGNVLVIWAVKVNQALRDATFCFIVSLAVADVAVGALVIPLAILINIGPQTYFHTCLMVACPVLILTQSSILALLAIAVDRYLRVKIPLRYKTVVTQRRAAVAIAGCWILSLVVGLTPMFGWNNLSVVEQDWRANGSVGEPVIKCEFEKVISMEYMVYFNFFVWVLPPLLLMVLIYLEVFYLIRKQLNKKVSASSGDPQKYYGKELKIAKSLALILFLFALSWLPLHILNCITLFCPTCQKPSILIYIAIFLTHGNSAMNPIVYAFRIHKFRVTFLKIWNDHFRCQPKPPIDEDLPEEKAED
Kind of experiment: biochemical.

Chain of Adenosine receptor A2a (P30543 whole entry): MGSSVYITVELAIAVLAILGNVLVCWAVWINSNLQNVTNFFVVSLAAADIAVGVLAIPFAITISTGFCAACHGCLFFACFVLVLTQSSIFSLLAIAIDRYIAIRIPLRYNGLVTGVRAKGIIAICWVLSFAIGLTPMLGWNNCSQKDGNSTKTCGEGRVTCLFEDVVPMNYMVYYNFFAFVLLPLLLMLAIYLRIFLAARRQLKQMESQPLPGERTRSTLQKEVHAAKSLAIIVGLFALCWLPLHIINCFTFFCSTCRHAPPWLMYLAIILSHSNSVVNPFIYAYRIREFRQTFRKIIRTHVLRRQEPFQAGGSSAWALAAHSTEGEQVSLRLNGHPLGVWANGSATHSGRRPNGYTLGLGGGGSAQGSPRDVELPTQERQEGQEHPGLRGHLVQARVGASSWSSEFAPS

In general, Ki refers to the dissociation constant of the complex between target and ligand, obtained from inhibition or displacement. A higher Ki goes with weaker binding. Take `Nc1nc(C(=O)N2CCOCC2)cn2nc(-c3ccco3)nc12`: the inhibition constant Ki at Adenosine receptor A2a and on Adenosine receptor A1 was greater than 250 nM each time.

Take `Nc1ccc(-c2cn3nc(-c4ccco4)nc3c(N)n2)cc1`: the inhibition constant Ki at Adenosine receptor A2a is greater than 1000 nM.

As to `CC(C)NC(=O)c1cccc(-c2cn3nc(-c4ccco4)nc3c(N)n2)c1`, the inhibition constant (Ki) on Adenosine receptor A2a stood at 140 nM; on Adenosine receptor A1, 290 nM.

`Nc1nc(-c2ccc(C(F)(F)F)cc2)cn2nc(-c3ccco3)nc12` registered an inhibition constant (Ki) at Adenosine receptor A2a greater than 1000 nM.

For `Nc1nc(C(=O)N2CCN(c3ccncc3)CC2)cn2nc(-c3ccco3)nc12`, the Ki on Adenosine receptor A2a and on Adenosine receptor A1 was greater than 250 nM each time.

In turn, `Nc1nc(-c2cccnc2)cn2nc(-c3ccco3)nc12` had an inhibition constant Ki at Adenosine receptor A2a of 460 nM.

With `CCN(CC)C(=O)c1cccc(-c2cn3nc(-c4ccco4)nc3c(N)n2)c1`, the inhibition constant Ki on Adenosine receptor A2a stood at 1 nM; at Adenosine receptor A1, 41 nM.

Consider `Nc1nc(-c2cccc(C(=O)NCCc3ccc(O)cc3)c2)cn2nc(-c3ccco3)nc12`, for which the Ki at Adenosine receptor A2a was 180 nM; at Adenosine receptor A1, greater than 250 nM.

For the compound `Nc1nc(-c2ccc(CO)cc2)cn2nc(-c3ccco3)nc12`, the inhibition constant Ki at Adenosine receptor A2a is greater than 1000 nM.

As for `N#Cc1cccc(-c2cn3nc(-c4ccco4)nc3c(N)n2)c1`, the inhibitory constant (Ki) on Adenosine receptor A2a turned out to be 160 nM.

In the case of `CN(C)c1cccc(-c2cn3nc(-c4ccco4)nc3c(N)n2)c1`, the Ki at Adenosine receptor A2a is 140 nM.

For the compound `CN(Cc1ccccc1)C(=O)c1cn2nc(-c3ccco3)nc2c(N)n1`, the inhibitory constant (Ki) at Adenosine receptor A2a came to 27 nM; at Adenosine receptor A1, 160 nM.

Consider `Nc1nc(-c2cncnc2)cn2nc(-c3ccco3)nc12`, for which, at Adenosine receptor A2a, the Ki was determined as 360 nM.

Regarding `Nc1nc(-c2ccc(C(=O)NCCc3ccc(O)cc3)cc2)cn2nc(-c3ccco3)nc12`, the results for the Ki at Adenosine receptor A2a and on Adenosine receptor A1 were 830 nM and 36 nM, respectively.

As for `N#Cc1ccc(-c2cn3nc(-c4ccco4)nc3c(N)n2)cc1`, the Ki on Adenosine receptor A2a is greater than 1000 nM.

With `CCOC(=O)c1ccc(-c2cn3nc(-c4ccco4)nc3c(N)n2)cc1`, the Ki on Adenosine receptor A2a is greater than 1000 nM.

On Adenosine receptor A2a, `Nc1nc(-c2cccc([N+](=O)[O-])c2)cn2nc(-c3ccco3)nc12` showed an inhibition constant (Ki) of 460 nM.

For the compound `CS(=O)(=O)c1cccc(-c2cn3nc(-c4ccco4)nc3c(N)n2)c1`, on Adenosine receptor A2a, the affinity, expressed as Ki, was 110 nM.

In the case of `Nc1nc(C(=O)NCCCc2ccccc2)cn2nc(-c3ccco3)nc12`, the figures for the Ki on Adenosine receptor A2a and at Adenosine receptor A1 were 28 nM and 240 nM, respectively.

In turn, `Nc1nc(-c2cccc3cccnc23)cn2nc(-c3ccco3)nc12` had an inhibitory constant (Ki) on Adenosine receptor A2a of 250 nM.

With `CC(=O)c1cccc(-c2cn3nc(-c4ccco4)nc3c(N)n2)c1`, the Ki on Adenosine receptor A2a worked out at 75 nM.

As to `Nc1nc(C(=O)NCCc2ccc(O)cc2)cn2nc(-c3ccco3)nc12`, the Ki on Adenosine receptor A2a is 1 nM; at Adenosine receptor A1 it was 320 nM.

Compound `Nc1nc(-c2cccc(CO)c2)cn2nc(-c3ccco3)nc12` showed a Ki on Adenosine receptor A2a of 470 nM.

As for `CC(=O)Nc1cccc(-c2cn3nc(-c4ccco4)nc3c(N)n2)c1`, the inhibitory constant (Ki) on Adenosine receptor A2a turned out to be 160 nM.

For the compound `CN(C)C(=O)c1cccc(-c2cn3nc(-c4ccco4)nc3c(N)n2)c1`, the values for the inhibitory constant (Ki) at Adenosine receptor A2a and on Adenosine receptor A1 were 70 nM and 120 nM, respectively.

At Adenosine receptor A2a, `CN(C)c1ccc(-c2cn3nc(-c4ccco4)nc3c(N)n2)cc1` showed an inhibition constant Ki greater than 1000 nM.

As to `Nc1nc(-c2cccc(C(=O)N3CCN(c4ccncc4)CC3)c2)cn2nc(-c3ccco3)nc12`, the Ki at Adenosine receptor A2a came out at 730 nM; at Adenosine receptor A1 it was 3 nM.

With `Nc1nc(-c2ccc(C(=O)N3CCOCC3)cc2)cn2nc(-c3ccco3)nc12`, the Ki amounted to 19 nM on Adenosine receptor A2a and 1800 nM on Adenosine receptor A1.

Take `NC(=O)c1cccc(-c2cn3nc(-c4ccco4)nc3c(N)n2)c1`: the inhibition constant Ki on Adenosine receptor A2a came to 110 nM.

Turning to `Nc1nc(C(=O)N2CCN(Cc3ccccc3)CC2)cn2nc(-c3ccco3)nc12`, the inhibitory constant (Ki) on Adenosine receptor A2a and at Adenosine receptor A1 was greater than 250 nM throughout.

Take `Nc1nc(-c2cccc(C(=O)N3CCN(Cc4ccccc4)CC3)c2)cn2nc(-c3ccco3)nc12`: the inhibition constant Ki at Adenosine receptor A2a is 680 nM; on Adenosine receptor A1, greater than 250 nM.

On Adenosine receptor A2a, `Nc1nc(-c2ccco2)cn2nc(-c3ccco3)nc12` had an inhibitory constant (Ki) of 400 nM.

Consider `CC(C)c1cccc(-c2cn3nc(-c4ccco4)nc3c(N)n2)c1`, for which the affinity on Adenosine receptor A2a corresponds to a Ki of 680 nM.

The compound `Nc1nc(-c2ccc([N+](=O)[O-])cc2)cn2nc(-c3ccco3)nc12` returned a Ki at Adenosine receptor A2a greater than 1000 nM.

For `Nc1nc(-c2cccc(C(=O)N3CCOCC3)c2)cn2nc(-c3ccco3)nc12`, the inhibition constant (Ki) at Adenosine receptor A2a is 240 nM; at Adenosine receptor A1, less than 250 nM.

For `Nc1nc(-c2cccc(C(=O)O)c2)cn2nc(-c3ccco3)nc12`, the Ki on Adenosine receptor A2a is greater than 1000 nM.

Take `COc1cccc(-c2cn3nc(-c4ccco4)nc3c(N)n2)c1`: on Adenosine receptor A2a, the Ki is 270 nM.

Regarding `Nc1nc(-c2ccc(C(=O)NCCCn3ccnc3)cc2)cn2nc(-c3ccco3)nc12`, the Ki at Adenosine receptor A2a was 330 nM; on Adenosine receptor A1 it was greater than 250 nM.

For the compound `CCCCNC(=O)c1cn2nc(-c3ccco3)nc2c(N)n1`, the Ki was 1 nM at Adenosine receptor A2a and 120 nM at Adenosine receptor A1.

In the case of `Nc1nc(-c2cccc(C(F)(F)F)c2)cn2nc(-c3ccco3)nc12`, the inhibition constant (Ki) at Adenosine receptor A2a stood at 220 nM.

`Nc1nc(-c2cccc3ccccc23)cn2nc(-c3ccco3)nc12` returned a Ki on Adenosine receptor A2a of 420 nM.

`CCOC(=O)c1cccc(-c2cn3nc(-c4ccco4)nc3c(N)n2)c1` gave an inhibition constant Ki at Adenosine receptor A2a of 370 nM.

In turn, `Nc1cccc(-c2cn3nc(-c4ccco4)nc3c(N)n2)c1` gave a Ki at Adenosine receptor A2a of 630 nM.

For `Nc1nc(C(=O)NCc2ccccc2)cn2nc(-c3ccco3)nc12`, the inhibitory constant (Ki) on Adenosine receptor A2a worked out at 2 nM; on Adenosine receptor A1 it was 14 nM.
